Patent publication US9211310B2, “Use of a Chinese medicine composition in preparing medicaments for treating secondary prevention of myocardial infarction” (TASLY PHARMACEUTICAL GROUP CO., LTD, priority 2010, dated 2015)

Tested on: patients after acute myocardial infarction
Assay: TCM symptom score, total and single (chest pain, chest tightness, short breath, fatigue, palpitation, spontaneous perspiration, pale complexion), same clinical trial
Assay type: in vivo, human
Set-up: total score of TCM symptom, Mean / total score of TCM symptom, Min / total score of TCM symptom, Max / total score of TCM symptom, Md / change of total score of TCM symptom, Mean / change of total score of TCM symptom, Max / change of total score of TCM symptom, Md: scale not given here
From the text: 3508 patients who were in accordance with the diagnostic standards of AMI for 28 days to 2 years and differentiated as Qi deficiency and blood stagnation syndrome by TCM were studied. 0.5 g Chinese medicine composition prepared by the method of EXAMPLE 1 (Coded as QSYQ) was administrated half an hour after meal, 3 times per day.
They included the overall survival time, angina pectoris score, TCM symptom score and life quality score, where angina pectoris score, TCM symptom score and life quality score were evaluated at randomization, in 1st, 3rd, 6th, 9th, 12th month after treatment and 18th month after follow-up.
The analysis method referred to the angina pectoris score.

[1] = PP, 12 months after treatment-treatment
[2] = PP, 1 month after treatment-baseline

CC(=O)Oc1ccccc1C(=O)O [Control group, aspirine]
chest tightness score 2, percent of patients (Follow-up, FAS): (0.07%)
chest tightness score 3, number of patients (Follow-up, FAS): 479
chest tightness score 3, percent of patients (Follow-up, FAS): (33.57%)
chest tightness score 6, number of patients (Follow-up, FAS): 192
chest tightness score 6, percent of patients (Follow-up, FAS): (13.45%)
chest tightness score 9, number of patients (Follow-up, FAS): 1
chest tightness score 9, percent of patients (Follow-up, FAS): (0.07%)
chest pain score 0, number of patients (Follow-up, PP): 733
chest pain score 0, percent of patients (Follow-up, PP): (52.62%)
chest pain score 2, number of patients (Follow-up, PP): 1
chest pain score 2, percent of patients (Follow-up, PP): (0.07%)
chest pain score 3, number of patients (Follow-up, PP): 472
chest pain score 3, percent of patients (Follow-up, PP): (33.88%)
chest pain score 6, number of patients (Follow-up, PP): 186
chest pain score 6, percent of patients (Follow-up, PP): (13.35%)
chest pain score 9, number of patients (Follow-up, PP): 1
chest pain score 9, percent of patients (Follow-up, PP): (0.07%)
chest tightness score 0, number of patients (Follow-up, PP): 733
chest tightness score 0, percent of patients (Follow-up, PP): (52.62%)
chest tightness score 2, number of patients (Follow-up, PP): 1
chest tightness score 2, percent of patients (Follow-up, PP): (0.07%)
chest tightness score 3, number of patients (Follow-up, PP): 472
chest tightness score 3, percent of patients (Follow-up, PP): (33.88%)
chest tightness score 6, number of patients (Follow-up, PP): 186
chest tightness score 6, percent of patients (Follow-up, PP): (13.35%)
chest tightness score 9, number of patients (Follow-up, PP): 1
chest tightness score 9, percent of patients (Follow-up, PP): (0.07%)
change of short breath 0, % of patients [1]: (53.11%)
change of short breath 2, % of patients [1]: (36.17%)
change of short breath 2, number of patients [1]: 506
change of short breath 4, % of patients [1]: (4.50%)
change of short breath 4, number of patients [1]: 63
change of short breath 6, % of patients [1]: (0.79%)
change of short breath 6, number of patients [1]: 11
change of short breath −2, % of patients [1]: (5.36%)
change of short breath −2, number of patients [1]: 75
change of short breath −4, % of patients [1]: (0.07%)
change of short breath −4, number of patients [1]: 1
distribution of total score of TCM symptom: Medium, number of patients (PP, 1 month after treatment): 600
distribution of total score of TCM symptom: Medium, percentage of patients (PP, 1 month after treatment): (41.04%)
distribution of total score of TCM symptom: Mild, number of patients (PP, 1 month after treatment): 847
distribution of total score of TCM symptom: Mild, percentage of patients (PP, 1 month after treatment): (57.93%)
distribution of total score of TCM symptom: Severe, number of patients (PP, 1 month after treatment): 15
distribution of total score of TCM symptom: Severe, percentage of patients (PP, 1 month after treatment): (1.03%)
fatigue score 0, % of patients (PP, 1 month after treatment): (23.62%)
fatigue score 0, number of patients (PP, 1 month after treatment): 346
fatigue score 2, % of patients (PP, 1 month after treatment): (60.75%)
fatigue score 2, number of patients (PP, 1 month after treatment): 890
fatigue score 4, % of patients (PP, 1 month after treatment): (14.40%)
fatigue score 4, number of patients (PP, 1 month after treatment): 211
fatigue score 6, % of patients (PP, 1 month after treatment): (1.23%)
fatigue score 6, number of patients (PP, 1 month after treatment): 18
pale complexion score 0, number of patients (PP, 1 month after treatment): 613
pale complexion score 0, percent of patients (PP, 1 month after treatment): (41.81%)
pale complexion score 1, number of patients (PP, 1 month after treatment): 615
pale complexion score 1, percent of patients (PP, 1 month after treatment): (41.95%)
pale complexion score 2, number of patients (PP, 1 month after treatment): 211
pale complexion score 2, percent of patients (PP, 1 month after treatment): (14.39%)
pale complexion score 3, number of patients (PP, 1 month after treatment): 27
pale complexion score 3, percent of patients (PP, 1 month after treatment): (1.84%)
palpitation score 0, number of patients (PP, 1 month after treatment): 353
palpitation score 0, percent of patients (PP, 1 month after treatment): (24.11%)
palpitation score 1, number of patients (PP, 1 month after treatment): 1
palpitation score 1, percent of patients (PP, 1 month after treatment): (0.07%)
palpitation score 2, number of patients (PP, 1 month after treatment): 713
palpitation score 2, percent of patients (PP, 1 month after treatment): (48.70%)
palpitation score 4, number of patients (PP, 1 month after treatment): 351
palpitation score 4, percent of patients (PP, 1 month after treatment): (23.98%)
palpitation score 6, number of patients (PP, 1 month after treatment): 46
palpitation score 6, percent of patients (PP, 1 month after treatment): (3.14%)
short breath score 0, % of patients (PP, 1 month after treatment): (20.68%)
short breath score 0, number of patients (PP, 1 month after treatment): 303
short breath score 3, % of patients (PP, 1 month after treatment): (53.72%)
short breath score 3, number of patients (PP, 1 month after treatment): 787
short breath score 6, % of patients (PP, 1 month after treatment): (24.91%)
short breath score 6, number of patients (PP, 1 month after treatment): 365
short breath score 9, % of patients (PP, 1 month after treatment): (0.68%)
short breath score 9, number of patients (PP, 1 month after treatment): 10
spontaneous perspiration score 0, number of patients (PP, 1 month after treatment): 518
spontaneous perspiration score 0, percent of patients (PP, 1 month after treatment): (35.36%)
spontaneous perspiration score 1, number of patients (PP, 1 month after treatment): 738
spontaneous perspiration score 1, percent of patients (PP, 1 month after treatment): (50.38%)
spontaneous perspiration score 2, number of patients (PP, 1 month after treatment): 195
spontaneous perspiration score 2, percent of patients (PP, 1 month after treatment): (13.31%)
spontaneous perspiration score 3, number of patients (PP, 1 month after treatment): 14
spontaneous perspiration score 3, percent of patients (PP, 1 month after treatment): (0.96%)
total score of TCM symptom, Max (PP, 1 month after treatment): 34.00
total score of TCM symptom, Md (PP, 1 month after treatment): 11.00
total score of TCM symptom, Mean (PP, 1 month after treatment): 11.93
total score of TCM symptom, Min (PP, 1 month after treatment): 0.00
change of fatigue 0, % of patients [2]: (72.24%)
change of fatigue 0, number of patients [2]: 1054
change of fatigue 1, % of patients [2]: (0.07%)
change of fatigue 1, number of patients [2]: 1
change of fatigue 2, % of patients [2]: (17.82%)
change of fatigue 2, number of patients [2]: 260
change of fatigue 4, % of patients [2]: (2.40%)
change of fatigue 4, number of patients [2]: 35
change of fatigue 6, % of patients [2]: (0.82%)
change of fatigue 6, number of patients [2]: 12
change of fatigue −2, % of patients [2]: (5.96%)
change of fatigue −2, number of patients [2]: 87
change of fatigue −4, % of patients [2]: (0.62%)
change of fatigue −4, number of patients [2]: 9
change of fatigue −6, % of patients [2]: (0.07%)
change of fatigue −6, number of patients [2]: 1
change of pale complexion 0, number of patients [2]: 1275
change of pale complexion 0, percent of patients [2]: (87.45%)
change of pale complexion 1, number of patients [2]: 131
change of pale complexion 1, percent of patients [2]: (8.98%)
change of pale complexion −1, number of patients [2]: 52
change of pale complexion −1, percent of patients [2]: (3.57%)
change of palpitation 0, number of patients [2]: 1051
change of palpitation 0, percent of patients [2]: (71.99%)
change of palpitation 1, number of patients [2]: 295
change of palpitation 1, percent of patients [2]: (20.21%)
change of palpitation 2, number of patients [2]: 22
change of palpitation 2, percent of patients [2]: (1.51%)
change of palpitation 3, number of patients [2]: 4
change of palpitation 3, percent of patients [2]: (0.27%)
change of palpitation −1, number of patients [2]: 87
change of palpitation −1, percent of patients [2]: (5.96%)
change of palpitation −2, number of patients [2]: 1
change of palpitation −2, percent of patients [2]: (0.07%)
